# Measurements from the kinase profiling compilation of Christmann-Franck et al. (2016).
# How the values were obtained:
# Test in all cases: radiometric filter-binding kinase assay, Kinase HotSpot
# Conditions in all cases: compound 0.5 µM; ATP 10 µM
# [1] = biological target: GRK5 (human) (UniProt P34947)
# [2] = biological target: HIPK4 (human) (UniProt Q8NE63)
# [3] = biological target: CDK6 CCND3 (human) (UniProt P30281+Q00534)
# [4] = biological target: CDK1 CCNA2 (human) (UniProt P06493+P20248)
# [5] = biological target: PTK6 (human) (UniProt Q13882)
# [6] = biological target: CHEK2 (human) (UniProt O96017)
# [7] = biological target: TTK (human) (UniProt P33981)
# [8] = biological target: PRKCB1 (human) (UniProt P05771)
# [9] = biological target: CSF1R (human) (UniProt P07333)
# [10] = biological target: AKT3 (human) (UniProt Q9Y243)
# [11] = biological target: EPHA5 (human) (UniProt P54756)
# [12] = biological target: PRKD1 (human) (UniProt Q15139)
# [13] = biological target: NTRK2 (human) (UniProt Q16620)
# Chain of NTRK2 (human) (Q16620 whole entry, looked up): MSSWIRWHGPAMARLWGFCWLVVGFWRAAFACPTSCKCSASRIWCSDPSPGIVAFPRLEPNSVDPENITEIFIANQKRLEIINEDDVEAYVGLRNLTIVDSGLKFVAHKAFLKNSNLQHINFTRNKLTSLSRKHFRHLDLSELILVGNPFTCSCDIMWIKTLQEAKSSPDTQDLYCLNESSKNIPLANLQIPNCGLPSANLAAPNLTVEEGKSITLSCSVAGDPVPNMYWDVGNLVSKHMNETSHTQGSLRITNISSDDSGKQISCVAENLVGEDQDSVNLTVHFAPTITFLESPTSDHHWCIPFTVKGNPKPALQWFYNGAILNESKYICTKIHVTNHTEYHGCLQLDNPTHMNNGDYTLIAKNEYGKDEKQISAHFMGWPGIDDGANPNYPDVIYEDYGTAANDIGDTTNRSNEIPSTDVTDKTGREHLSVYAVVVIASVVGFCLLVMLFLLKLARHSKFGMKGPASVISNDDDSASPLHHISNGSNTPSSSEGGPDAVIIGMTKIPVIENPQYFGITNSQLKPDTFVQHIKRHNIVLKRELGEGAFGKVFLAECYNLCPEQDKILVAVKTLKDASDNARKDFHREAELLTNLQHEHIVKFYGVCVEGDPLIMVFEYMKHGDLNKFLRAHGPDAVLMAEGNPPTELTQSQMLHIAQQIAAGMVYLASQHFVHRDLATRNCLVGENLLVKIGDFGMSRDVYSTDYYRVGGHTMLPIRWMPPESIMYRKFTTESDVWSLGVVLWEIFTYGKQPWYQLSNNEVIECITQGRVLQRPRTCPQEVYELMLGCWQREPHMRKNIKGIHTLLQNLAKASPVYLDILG
# [14] = biological target: PRKCB2 (human) (UniProt P05771)
# [15] = biological target: STK25 (human) (UniProt O00506)
# [16] = biological target: RPS6KA3 KD1 KD2 (human) (UniProt P51812)
# [17] = biological target: PTK2B (human) (UniProt Q14289)
# Chain of PTK2B (human) (Q14289 whole entry, looked up): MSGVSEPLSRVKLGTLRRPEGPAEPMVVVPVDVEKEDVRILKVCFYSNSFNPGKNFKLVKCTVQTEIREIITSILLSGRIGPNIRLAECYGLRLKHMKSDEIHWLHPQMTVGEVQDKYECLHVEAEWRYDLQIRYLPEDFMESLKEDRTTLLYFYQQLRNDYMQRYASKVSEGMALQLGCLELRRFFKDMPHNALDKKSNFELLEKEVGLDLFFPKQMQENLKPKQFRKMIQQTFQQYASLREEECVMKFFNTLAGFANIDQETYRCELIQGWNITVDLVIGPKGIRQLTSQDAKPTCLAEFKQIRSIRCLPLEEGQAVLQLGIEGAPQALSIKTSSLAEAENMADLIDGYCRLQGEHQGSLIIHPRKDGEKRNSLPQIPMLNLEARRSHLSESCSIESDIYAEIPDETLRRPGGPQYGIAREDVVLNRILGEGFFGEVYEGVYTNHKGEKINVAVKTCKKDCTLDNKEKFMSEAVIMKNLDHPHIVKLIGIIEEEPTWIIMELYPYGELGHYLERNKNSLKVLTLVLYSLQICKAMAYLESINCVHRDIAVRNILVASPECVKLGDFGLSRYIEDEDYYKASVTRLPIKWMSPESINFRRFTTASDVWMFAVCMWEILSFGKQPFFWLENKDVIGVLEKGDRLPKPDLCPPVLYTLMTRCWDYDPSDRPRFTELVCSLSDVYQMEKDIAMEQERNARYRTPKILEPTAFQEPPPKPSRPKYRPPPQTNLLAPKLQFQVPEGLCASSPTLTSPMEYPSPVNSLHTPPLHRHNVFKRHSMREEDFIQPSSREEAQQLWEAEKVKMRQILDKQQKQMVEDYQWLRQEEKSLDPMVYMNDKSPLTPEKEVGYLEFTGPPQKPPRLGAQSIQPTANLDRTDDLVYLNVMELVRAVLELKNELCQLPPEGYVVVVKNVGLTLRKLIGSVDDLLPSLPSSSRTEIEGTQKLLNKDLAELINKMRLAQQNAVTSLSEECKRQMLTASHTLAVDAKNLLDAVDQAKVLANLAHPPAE
# [18] = biological target: EPHA2 (human) (UniProt P29317)
# [19] = biological target: CLK2 (human) (UniProt P49760)
# [20] = biological target: MAPK13 (human) (UniProt O15264)
# [21] = biological target: FER (human) (UniProt P16591)
# [22] = biological target: PRKCZ (human) (UniProt Q05513)
# [23] = biological target: FGR (human) (UniProt P09769)
# Chain of FGR (human) (P09769 whole entry, looked up): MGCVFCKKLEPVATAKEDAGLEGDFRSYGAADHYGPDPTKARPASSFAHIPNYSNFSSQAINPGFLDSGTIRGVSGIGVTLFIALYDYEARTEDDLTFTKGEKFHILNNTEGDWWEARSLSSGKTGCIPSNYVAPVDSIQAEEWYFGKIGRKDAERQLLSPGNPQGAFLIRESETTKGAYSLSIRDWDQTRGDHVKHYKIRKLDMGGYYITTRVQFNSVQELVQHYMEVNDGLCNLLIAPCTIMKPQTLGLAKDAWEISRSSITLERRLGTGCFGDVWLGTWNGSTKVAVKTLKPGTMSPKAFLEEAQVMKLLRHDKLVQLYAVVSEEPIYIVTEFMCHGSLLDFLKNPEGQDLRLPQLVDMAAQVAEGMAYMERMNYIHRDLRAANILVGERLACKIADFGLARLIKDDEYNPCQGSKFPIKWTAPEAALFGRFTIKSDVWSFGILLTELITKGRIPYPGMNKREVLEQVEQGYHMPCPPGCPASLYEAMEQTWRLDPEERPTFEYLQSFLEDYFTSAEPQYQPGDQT
# [24] = biological target: WNK2 (human) (UniProt Q9Y3S1)
# [25] = biological target: MATK (human) (UniProt P42679)
# [26] = biological target: MAPK8 (human) (UniProt P45983)
# Chain of MAPK8 (human) (P45983 whole entry, looked up): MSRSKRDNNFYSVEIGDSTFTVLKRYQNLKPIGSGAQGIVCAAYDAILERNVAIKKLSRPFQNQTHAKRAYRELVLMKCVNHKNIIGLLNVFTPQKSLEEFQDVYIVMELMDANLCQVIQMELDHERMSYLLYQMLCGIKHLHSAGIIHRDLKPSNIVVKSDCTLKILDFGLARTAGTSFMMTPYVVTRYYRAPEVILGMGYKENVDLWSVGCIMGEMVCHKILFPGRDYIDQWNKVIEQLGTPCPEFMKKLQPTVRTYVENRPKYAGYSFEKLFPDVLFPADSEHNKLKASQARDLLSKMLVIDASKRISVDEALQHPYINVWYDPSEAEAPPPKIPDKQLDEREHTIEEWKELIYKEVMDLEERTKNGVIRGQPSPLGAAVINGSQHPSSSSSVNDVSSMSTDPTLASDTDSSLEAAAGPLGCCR
# [27] = biological target: MAP3K14 (human) (UniProt Q99558)
# Chain of MAP3K14 (human) (Q99558 whole entry, looked up): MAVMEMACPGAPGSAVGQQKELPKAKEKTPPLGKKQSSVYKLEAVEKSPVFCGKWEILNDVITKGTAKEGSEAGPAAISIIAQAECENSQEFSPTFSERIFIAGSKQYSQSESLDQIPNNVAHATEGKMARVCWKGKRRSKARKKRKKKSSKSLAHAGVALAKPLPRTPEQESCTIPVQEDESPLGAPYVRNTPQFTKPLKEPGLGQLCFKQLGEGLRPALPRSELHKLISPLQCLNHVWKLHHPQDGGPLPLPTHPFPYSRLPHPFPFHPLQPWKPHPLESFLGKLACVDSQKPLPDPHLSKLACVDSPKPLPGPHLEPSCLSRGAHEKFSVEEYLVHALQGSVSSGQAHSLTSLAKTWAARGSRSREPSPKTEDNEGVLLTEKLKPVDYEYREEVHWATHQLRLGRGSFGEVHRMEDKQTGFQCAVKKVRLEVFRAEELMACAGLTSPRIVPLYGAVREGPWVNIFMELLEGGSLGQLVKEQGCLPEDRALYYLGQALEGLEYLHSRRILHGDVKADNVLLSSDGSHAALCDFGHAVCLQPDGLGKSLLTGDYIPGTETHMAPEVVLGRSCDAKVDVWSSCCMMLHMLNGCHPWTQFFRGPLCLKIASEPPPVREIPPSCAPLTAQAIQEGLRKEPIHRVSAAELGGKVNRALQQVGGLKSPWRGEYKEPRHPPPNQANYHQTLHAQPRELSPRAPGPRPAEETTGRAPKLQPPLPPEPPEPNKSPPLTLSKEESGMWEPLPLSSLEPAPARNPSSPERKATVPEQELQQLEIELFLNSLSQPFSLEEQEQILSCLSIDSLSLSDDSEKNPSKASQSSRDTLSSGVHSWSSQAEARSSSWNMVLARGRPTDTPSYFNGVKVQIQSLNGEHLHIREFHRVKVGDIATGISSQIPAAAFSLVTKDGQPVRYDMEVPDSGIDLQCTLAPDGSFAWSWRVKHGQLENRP
# [28] = biological target: ADRBK2 (human) (UniProt P35626)
# [29] = biological target: TYRO3 (human) (UniProt Q06418)
# [30] = biological target: NTRK3 (human) (UniProt Q16288)
# [31] = biological target: PAK6 (human) (UniProt Q9NQU5)
# [32] = biological target: ROCK2 (human) (UniProt O75116)
# [33] = biological target: CDK1 CCNB1 (human) (UniProt P06493+P14635)
# [34] = biological target: ALK (human) (UniProt Q9UM73)
# [35] = biological target: CSNK1G2 (human) (UniProt P78368)
# [36] = biological target: IKBKE (human) (UniProt Q14164)
# [37] = biological target: PLK2 (human) (UniProt Q9NYY3)
# [38] = biological target: NUAK1 (human) (UniProt O60285)
# Chain of NUAK1 (human) (O60285 whole entry, looked up): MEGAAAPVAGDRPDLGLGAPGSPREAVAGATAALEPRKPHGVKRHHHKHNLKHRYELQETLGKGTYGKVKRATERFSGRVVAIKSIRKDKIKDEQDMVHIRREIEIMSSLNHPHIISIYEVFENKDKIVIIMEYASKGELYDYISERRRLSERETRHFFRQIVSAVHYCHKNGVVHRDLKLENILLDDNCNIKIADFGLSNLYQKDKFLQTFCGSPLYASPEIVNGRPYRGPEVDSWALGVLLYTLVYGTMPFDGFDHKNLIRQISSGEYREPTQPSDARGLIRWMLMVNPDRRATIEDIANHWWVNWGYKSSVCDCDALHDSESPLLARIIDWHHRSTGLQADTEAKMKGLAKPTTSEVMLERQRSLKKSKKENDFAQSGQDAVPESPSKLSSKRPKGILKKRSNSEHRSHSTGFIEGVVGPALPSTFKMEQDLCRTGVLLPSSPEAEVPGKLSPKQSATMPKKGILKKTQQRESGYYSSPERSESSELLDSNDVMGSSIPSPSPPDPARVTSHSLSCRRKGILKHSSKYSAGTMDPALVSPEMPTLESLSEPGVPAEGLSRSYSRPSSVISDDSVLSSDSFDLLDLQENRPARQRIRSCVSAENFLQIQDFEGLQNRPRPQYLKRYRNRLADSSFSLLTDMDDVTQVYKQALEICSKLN
# [39] = biological target: NUAK2 (human) (UniProt Q9H093)
# [40] = biological target: MAPK10 (human) (UniProt P53779)
# [41] = biological target: CAMK1D (human) (UniProt Q8IU85)
# [42] = biological target: MAPK14 (human) (UniProt Q16539)
# Chain of MAPK14 (human) (Q16539 whole entry, looked up): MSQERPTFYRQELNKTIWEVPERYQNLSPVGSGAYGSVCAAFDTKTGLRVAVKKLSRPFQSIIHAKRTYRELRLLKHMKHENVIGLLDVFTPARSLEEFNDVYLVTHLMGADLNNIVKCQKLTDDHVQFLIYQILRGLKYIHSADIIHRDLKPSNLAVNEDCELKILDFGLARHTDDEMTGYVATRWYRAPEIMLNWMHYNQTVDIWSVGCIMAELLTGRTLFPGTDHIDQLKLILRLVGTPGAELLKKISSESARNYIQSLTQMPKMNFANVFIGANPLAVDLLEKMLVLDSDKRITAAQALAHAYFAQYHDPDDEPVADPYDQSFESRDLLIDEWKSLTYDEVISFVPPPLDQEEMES
smiles,measurement,setting,value
O=C(CCCc1ccc(-c2ccccc2F)cc1)Nc1ccc(O)cc1,residual activity,[1],98.4%
same,residual activity,[2],105%
same,residual activity,[3],103%
same,residual activity,[4],93.7%
same,residual activity,[5],102%
same,residual activity,[6],101%
same,residual activity,[7],89.5%
same,residual activity,[8],93.4%
same,residual activity,[9],104%
same,residual activity,[10],111%
same,residual activity,[11],99%
same,residual activity,[12],98.4%
same,residual activity,[13],95.8%
same,residual activity,[14],102%
same,residual activity,[15],105%
same,residual activity,[16],95.8%
same,residual activity,[17],98.8%
same,residual activity,[18],101%
same,residual activity,[19],103%
same,residual activity,[20],103%
same,residual activity,[21],103%
same,residual activity,[22],116%
same,residual activity,[23],96%
same,residual activity,[24],106%
same,residual activity,[25],92.2%
same,residual activity,[26],103%
same,residual activity,[27],99.2%
same,residual activity,[28],100%
same,residual activity,[29],98.2%
same,residual activity,[30],96.3%
same,residual activity,[31],108%
same,residual activity,[32],90.5%
same,residual activity,[33],102%
same,residual activity,[34],97%
same,residual activity,[35],99.4%
same,residual activity,[36],98.2%
same,residual activity,[37],102%
same,residual activity,[38],96.4%
same,residual activity,[39],92.9%
same,residual activity,[40],100%
same,residual activity,[41],122%
same,residual activity,[42],89%
COc1cc2ncnc(N3CCN(C(=O)Nc4ccc(Oc5ccccc5)cc4)CC3)c2cc1OC,residual activity,[1],82.2%
same,residual activity,[2],75.4%
same,residual activity,[3],100%
same,residual activity,[4],92.3%
same,residual activity,[5],95.2%
same,residual activity,[6],102%
same,residual activity,[7],98.3%
same,residual activity,[8],94.5%
same,residual activity,[9],67.2%
same,residual activity,[10],97.5%
same,residual activity,[11],98.3%
same,residual activity,[12],102%
same,residual activity,[13],121%
same,residual activity,[14],102%
same,residual activity,[15],100%
same,residual activity,[16],115%
same,residual activity,[17],91.2%
same,residual activity,[18],95.7%
same,residual activity,[19],81.3%
same,residual activity,[20],104%
same,residual activity,[21],99.8%
same,residual activity,[22],96%
same,residual activity,[23],98.8%
same,residual activity,[24],102%
same,residual activity,[25],96.8%
same,residual activity,[26],90.5%
same,residual activity,[27],105%
same,residual activity,[28],106%
same,residual activity,[29],99.6%
same,residual activity,[30],89%
same,residual activity,[31],95.2%
same,residual activity,[32],125%
same,residual activity,[33],105%
same,residual activity,[34],101%
same,residual activity,[35],94.6%
same,residual activity,[36],98.9%
same,residual activity,[37],105%
same,residual activity,[38],88.8%
same,residual activity,[39],77.4%
same,residual activity,[40],98.2%
same,residual activity,[41],104%
same,residual activity,[42],81%
O=C1Nc2ccccc2/C1=C1\Nc2ccccc2\C1=N/O,residual activity,[1],103%
same,residual activity,[2],102%
same,residual activity,[3],26.1%
same,residual activity,[4],88.4%
same,residual activity,[5],97.2%
same,residual activity,[6],32.3%
same,residual activity,[7],68%
same,residual activity,[8],94.7%
same,residual activity,[9],83.2%
same,residual activity,[10],98.8%
same,residual activity,[11],86.5%
same,residual activity,[12],85%
same,residual activity,[13],4.08%
same,residual activity,[14],101%
same,residual activity,[15],87.5%
same,residual activity,[16],61.4%
same,residual activity,[17],65.8%
same,residual activity,[18],84.3%
same,residual activity,[19],92.5%
same,residual activity,[20],105%
same,residual activity,[21],67.8%
same,residual activity,[22],95.2%
same,residual activity,[23],35.7%
same,residual activity,[24],99.8%
same,residual activity,[25],98%
same,residual activity,[26],101%
same,residual activity,[27],88.7%
same,residual activity,[28],108%
same,residual activity,[29],79.6%
same,residual activity,[30],2.17%
same,residual activity,[31],94.4%
same,residual activity,[32],98.5%
same,residual activity,[33],68.7%
same,residual activity,[34],76.5%
same,residual activity,[35],89.4%
same,residual activity,[36],75.1%
same,residual activity,[37],106%
same,residual activity,[38],8.89%
same,residual activity,[39],72.5%
same,residual activity,[40],96.4%
same,residual activity,[41],92.3%
same,residual activity,[42],97.2%
COc1ccc(OC)c2c(=S)c3ccccc3[nH]c12,residual activity,[1],108%
same,residual activity,[2],97.3%
same,residual activity,[3],102%
same,residual activity,[4],96.2%
same,residual activity,[5],84%
same,residual activity,[6],117%
same,residual activity,[7],99.1%
same,residual activity,[8],101%
same,residual activity,[9],93.4%
same,residual activity,[10],92%
same,residual activity,[11],114%
same,residual activity,[12],99.8%
same,residual activity,[13],94%
same,residual activity,[14],106%
same,residual activity,[15],96.2%
same,residual activity,[16],109%
same,residual activity,[17],92.7%
same,residual activity,[18],100%
same,residual activity,[19],81.2%
same,residual activity,[20],103%
same,residual activity,[21],84%
same,residual activity,[22],99.4%
same,residual activity,[23],90.8%
same,residual activity,[24],89.8%
same,residual activity,[25],89.5%
same,residual activity,[26],96.8%
same,residual activity,[27],96%
same,residual activity,[28],86.5%
same,residual activity,[29],97.1%
same,residual activity,[30],93.6%
same,residual activity,[31],112%
same,residual activity,[32],90.4%
same,residual activity,[33],97.8%
same,residual activity,[34],105%
same,residual activity,[35],103%
same,residual activity,[36],104%
same,residual activity,[37],97.6%
same,residual activity,[38],99.3%
same,residual activity,[39],98.9%
same,residual activity,[40],108%
same,residual activity,[41],104%
same,residual activity,[42],104%
